Reference: ChEMBL document CHEMBL4130638, “Discovery of the Polyamine Conjugate with Benzo[ cd]indol-2(1 H)-one as a Lysosome-Targeted Antimetastatic Agent” (J Med Chem, 2018)
Active and inactive are the calls of the source. The rule behind the calls is not given here.

Tests used:
HCT-116 [1] = experiment: Growth inhibition of human HCT116 cells after 48 hrs by MTT assay; format: functional, cell-based; conditions: HCT-116, 48 h
K562 = experiment: Growth inhibition of human K562 cells after 48 hrs by MTT assay; format: functional, cell-based; conditions: K562, 48 h
HepG2 = experiment: Growth inhibition of human HepG2 cells after 48 hrs by MTT assay; format: functional, cell-based; conditions: HepG2, 48 h
SMMC-7721 = experiment: Growth inhibition of human SMMC7721 cells after 48 hrs by MTT assay; format: functional, cell-based; conditions: SMMC-7721, 48 h
HCT-116 [2] = experiment: Growth inhibition of human HCT116 cells after 24 hrs by MTT assay; format: functional, cell-based
CT26 [3] = experiment: Growth inhibition of mouse CT26 cells after 24 hrs by MTT assay; format: functional, cell-based
HCT-116 [4] = experiment: Antimigratory activity against human HCT116 cells at 10 uM after 24 hrs by crystal violet staining based transwell assay; format: functional, cell-based
CT26 [5] = experiment: Antimigratory activity against mouse CT26 cells at 10 uM after 24 hrs by crystal violet staining based transwell assay; format: functional, cell-based
CT26 [6] = experiment: Antimetastatic activity against mouse CT26 cells implanted in Balb/c mouse assessed as inhibition of pulmonary metastasis nodules at 5 mg/kg, iv for 7 consecutive days starting from day 8 post tumor implantation measured on day 15 post tumor implantation relative to control; format: functional
CT26 [7] = experiment: Antitumor activity against mouse CT26 cells implanted in Balb/c mouse assessed as solid tumor growth inhibition at 5 mg/kg, iv for 14 consecutive days measured on day 15 relative to control; format: functional; conditions: 360 h, read-out: TGI
Mus musculus [8] = experiment: Toxicity in Balb/c mouse implanted with mouse CT26 cells assessed as changes in body weight at 5 mg/kg, iv for 7 consecutive days starting from day 8 post tumor implantation; format: organism-based; conditions: in vivo
Mus musculus [9] = experiment: Toxicity in Balb/c mouse implanted with mouse CT26 cells assessed as changes in body weight at 5 mg/kg, iv for 14 consecutive days starting from day 8 post tumor implantation; format: organism-based; conditions: in vivo
HCT-116 [10] = experiment: Induction of apoptosis in human HCT116 cells assessed as live cells at 10 uM after 24 hrs by annexin V-FITC/propidium iodide staining based flow cytometry (reference value: 89.97%); format: functional
HCT-116 [11] = experiment: Induction of apoptosis in human HCT116 cells assessed as early apoptotic cells at 10 uM after 24 hrs by annexin V-FITC/propidium iodide staining based flow cytometry (reference value: 4.1%); format: functional
HCT-116 [12] = experiment: Induction of apoptosis in human HCT116 cells assessed as late apoptotic cells at 10 uM after 24 hrs by annexin V-FITC/propidium iodide staining based flow cytometry (reference value: 2.03%); format: functional
HCT-116 [13] = experiment: Induction of apoptosis in human HCT116 cells assessed as necrotic cells at 10 uM after 24 hrs by annexin V-FITC/propidium iodide staining based flow cytometry (reference value: 3.9%); format: functional
CT26 [14] = experiment: Induction of apoptosis in mouse CT26 cells assessed as live cells at 10 uM after 24 hrs by annexin V-FITC/propidium iodide staining based flow cytometry (reference value: 89.47%); format: functional
CT26 [15] = experiment: Induction of apoptosis in mouse CT26 cells assessed as early apoptotic cells at 10 uM after 24 hrs by annexin V-FITC/propidium iodide staining based flow cytometry (reference value: 3.91%); format: functional
CT26 [16] = experiment: Induction of apoptosis in mouse CT26 cells assessed as late apoptotic cells at 10 uM after 24 hrs by annexin V-FITC/propidium iodide staining based flow cytometry (reference value: 2.26%); format: functional
CT26 [17] = experiment: Induction of apoptosis in mouse CT26 cells assessed as necrotic cells at 10 uM after 24 hrs by annexin V-FITC/propidium iodide staining based flow cytometry (reference value: 4.36%); format: functional
HCT-116 [18] = experiment: Downregulation of beta-catenin protein expression in human HCT116 cells at 10 uM after 24 hrs by Western blot method; format: functional, cell-based
HCT-116 [19] = experiment: Downregulation of MMP2 protein expression in human HCT116 cells at 10 uM after 24 hrs by Western blot method; format: functional, cell-based

SMILES | IC50 (HCT-116 [1]) [µM] | IC50 (K562) [µM] | IC50 (HepG2) [µM] | IC50 (SMMC-7721) [µM] | further results
CN(C)CCN1C(=O)c2cccc3cc(N)cc(c23)C1=O [AMONAFIDE] | 7.18 | 20.1 | 11.7 | 10.3 | growth inhibition (GI) (HCT-116 [2]): Dose-dependent effect; IC50 (HCT-116 [2]; HCT-116, 24 h): 8.55 µM; growth inhibition (GI) (CT26 [3]): Dose-dependent effect; IC50 (CT26 [3]; CT26, 24 h): 11.7 µM; Activity (HCT-116 [4]): Active; Activity (CT26 [5]): Active; inhibition in vivo at 5 mg/kg (CT26 [6]): 66%; inhibition in vivo at 5 mg/kg (CT26 [7]): 20%; Activity (Mus musculus [8]): Non-Toxic; Activity (Mus musculus [9]): Non-Toxic; Activity (HCT-116 [10]): 40.53%; Activity (HCT-116 [11]): 14.9%; Activity (HCT-116 [12]): 36.9%; Activity (HCT-116 [13]): 7.6%; Activity (CT26 [14]): 48.49%; Activity (CT26 [15]): 27.2%; Activity (CT26 [16]): 20.3%; Activity (CT26 [17]): 3.92%; Activity (HCT-116 [18]): Active; Activity (HCT-116 [19]): Active
CCCCN1C(=O)c2cccc3c(CNCCCCN)ccc1c23 | 16.9 | > 50 | 10.1 | 25.4 | –
CCCCN1C(=O)c2cccc3c(CNCCCNCCCN)ccc1c23 | 28.3 | 23.5 | 3.27 | 5.59 | –
CCCCN1C(=O)c2cccc3c(NC(=O)CNCCCNCCCN)ccc1c23 | > 50 | > 50 | > 50 | > 50 | –
CCCCN1C(=O)c2cccc3c(NC(=O)CNCCCCNCCCCN)ccc1c23 | > 50 | > 50 | 21.9 | 23.3 | –
CCCCN1C(=O)c2cccc3c(NC(=O)CNCCCNCCCNCCCN)ccc1c23 | > 50 | > 50 | > 50 | > 50 | –
CCCCN1C(=O)c2cccc3c(NC(=O)CNCCCCN)ccc1c23 | > 50 | > 50 | > 50 | > 50 | –
CCCCN1C(=O)c2cccc3c(NC(=O)CNCCCCNCCCCNCCCCN)ccc1c23 | > 50 | > 50 | 16.1 | 18 | –

Now from value to compound, other results behind:

IC50 (HCT-116 [1]) [µM] | IC50 (K562) [µM] | IC50 (HepG2) [µM] | IC50 (SMMC-7721) [µM] | SMILES | further results
12 | 26.1 | 14.6 | 19.4 | NCCCNCCCNCCCN1C(=O)c2cccc3cccc1c23 | –
> 50 | > 50 | > 50 | 43.9 | NCCCCNCCCCN1C(=O)c2cccc3cccc1c23 | –
11.1 | 28.7 | 25.4 | 26.1 | NCCCNCCCCNCCCN1C(=O)c2cccc3cccc1c23 | –
16.9 | 11.5 | > 50 | 19.4 | NCCCNCCCN1C(=O)c2cccc3cccc1c23 | –
